Measurements taken from ChEMBL document CHEMBL1926600, “Design, synthesis and biological evaluation of cycloalkyl arylpyrimidines (CAPYs) as HIV-1 NNRTIs” (Bioorg Med Chem, 2011).

Experiments:
[1] = Cytotoxicity against human MT4 cells measured by MTT assay; type: cell-based
[2] = test system: Human immunodeficiency virus 2; assay: Antiviral activity against HIV2 ROD infected in human MT4 cells assessed as reduction in virus-induced cytopathogenicity after 5 days by MTT assay; type: functional, organism-based; details: Human immunodeficiency virus 2, ISOLATE ROD, MT4, 120 h
[3] = test system: Human immunodeficiency virus 1; assay: Antiviral activity against HIV1 harboring reverse transcriptase K103N/Y181C mutant infected in human MT4 cells assessed as reduction in virus-induced cytopathogenicity after 5 days by MTT assay; type: functional, organism-based; details: Human immunodeficiency virus 1, MT4, 120 h
[4] = test system: Human immunodeficiency virus 1; assay: Antiviral activity against wild type HIV1 3B infected in human MT4 cells assessed as reduction in virus-induced cytopathogenicity after 5 days by MTT assay; type: functional, organism-based; details: Human immunodeficiency virus 1, 3B, MT4, 120 h
[5] = Selectivity index, ratio of CC50 for human MT4 cells to EC50 for HIV1 3B; type: toxicity, cell-based; details: read-out: Ratio CC50/EC50

**Q.** For `Cc1cc(SC2CCCCC2)nc(Nc2ccc(C#N)cc2)n1`, which CC50 [1] is on record?
**A.** Its CC50 is no less than 192 µM.

**Q.** And the EC50 [2]?
**A.** The EC50 was greater than 192 µM.

**Q.** What about the EC50 [3] of the same compound?
**A.** The EC50 was greater than 192 µM.

**Q.** What about the EC50 [4] of the same compound?
**A.** The EC50 was 96 nM.

**Q.** What about the selectivity ratio [5] of the same compound?
**A.** Its selectivity ratio is no less than 2010.

**Q.** With `N#Cc1ccc(Nc2nccc(OC3CCCCC3)n2)cc1` as the compound, how does the CC50 [1] read?
**A.** The CC50 was 322 µM.

**Q.** And the EC50 [2]?
**A.** The EC50 was greater than 322 µM.

**Q.** And the EC50 [3]?
**A.** Its EC50 is greater than 322 µM.

**Q.** What about the EC50 [4] of the same compound?
**A.** The EC50 was 1160 nM.

**Q.** What about the selectivity ratio [5] of the same compound?
**A.** The selectivity ratio was 276.

**Q.** With `N#Cc1ccc(Nc2nccc(OC3CCCC3)n2)cc1` as the compound, how does the CC50 [1] read?
**A.** Its CC50 is no less than 340 µM.

**Q.** What about the EC50 [2] of the same compound?
**A.** Its EC50 is 31.3 µM.

**Q.** What about the EC50 [3] of the same compound?
**A.** Its EC50 is greater than 340 µM.

**Q.** What about the EC50 [4] of the same compound?
**A.** Its EC50 is 6710 nM.

**Q.** What about the selectivity ratio [5] of the same compound?
**A.** The selectivity ratio was no less than 51.

**Q.** For `Cc1cnc(Nc2ccc(C#N)cc2)nc1OC1CCCCC1`, which CC50 [1] is on record?
**A.** The CC50 was 31.2 µM.

**Q.** And the EC50 [2]?
**A.** The EC50 was greater than 31.2 µM.

**Q.** And the EC50 [3]?
**A.** The EC50 was greater than 31.2 µM.

**Q.** What about the EC50 [4] of the same compound?
**A.** The EC50 was 6490 nM.

**Q.** And the selectivity ratio [5]?
**A.** Its selectivity ratio is 5.

**Q.** Which CC50 [1] does the source give for `Cc1cnc(Nc2ccc(C#N)cc2)nc1OC1CCCC1` here?
**A.** Its CC50 is 9.99 µM.

**Q.** And the EC50 [2]?
**A.** Its EC50 is greater than 9.99 µM.

**Q.** And the EC50 [4]?
**A.** The EC50 was greater than 9990 nM.

**Q.** And the selectivity ratio [5]?
**A.** The selectivity ratio was less than 1.

**Q.** Which CC50 [1] does the source give for `Cc1cc(OC2CCCCC2)nc(Nc2ccc(C#N)cc2)n1` here?
**A.** The CC50 was 0.32 µM.

**Q.** And the EC50 [2]?
**A.** The EC50 was greater than 0.32 µM.

**Q.** What about the EC50 [4] of the same compound?
**A.** The EC50 was greater than 320 nM.

**Q.** What about the selectivity ratio [5] of the same compound?
**A.** The selectivity ratio was less than 1.

**Q.** Which results are given for `Cc1cc(OC2CCCC2)nc(Nc2ccc(C#N)cc2)n1`?
**A.** CC50 [1]: 1.05 µM; EC50 [2]: > 1.05 µM; EC50 [4]: > 1050 nM; selectivity ratio [5]: < 1

**Q.** With `N#Cc1ccc(Nc2nccc(NC3CCCCC3)n2)cc1` as the compound, how does the CC50 [1] read?
**A.** Its CC50 is 7.33 µM.

**Q.** And the EC50 [2]?
**A.** Its EC50 is greater than 7.33 µM.

**Q.** And the EC50 [3]?
**A.** The EC50 was greater than 7.33 µM.

**Q.** And the EC50 [4]?
**A.** Its EC50 is 960 nM.

**Q.** And the selectivity ratio [5]?
**A.** The selectivity ratio was 8.

**Q.** Which results are given for `N#Cc1ccc(Nc2nccc(NC3CCCC3)n2)cc1`?
**A.** CC50 [1]: 9.13 µM; EC50 [2]: > 9.13 µM; EC50 [3]: > 9.13 µM; EC50 [4]: 1580 nM; selectivity ratio [5]: 6

**Q.** Which CC50 [1] does the source give for `N#Cc1ccc(Nc2nccc(NC3CC3)n2)cc1` here?
**A.** The CC50 was 1.19 µM.

**Q.** What about the EC50 [2] of the same compound?
**A.** Its EC50 is greater than 1.19 µM.

**Q.** What about the EC50 [4] of the same compound?
**A.** The EC50 was greater than 1190 nM.

**Q.** What about the selectivity ratio [5] of the same compound?
**A.** The selectivity ratio was less than 1.

**Q.** Which CC50 [1] does the source give for `Cc1cnc(Nc2ccc(C#N)cc2)nc1NC1CCCCC1` here?
**A.** Its CC50 is 1.3 µM.

**Q.** What about the EC50 [2] of the same compound?
**A.** The EC50 was greater than 1.3 µM.

**Q.** What about the EC50 [4] of the same compound?
**A.** The EC50 was greater than 1300 nM.

**Q.** What about the selectivity ratio [5] of the same compound?
**A.** The selectivity ratio was less than 1.

**Q.** For `Cc1cnc(Nc2ccc(C#N)cc2)nc1NC1CCCC1`, which CC50 [1] is on record?
**A.** The CC50 was 0.17 µM.

**Q.** And the EC50 [2]?
**A.** Its EC50 is greater than 0.17 µM.

**Q.** What about the EC50 [4] of the same compound?
**A.** Its EC50 is greater than 170 nM.

**Q.** What about the selectivity ratio [5] of the same compound?
**A.** Its selectivity ratio is less than 1.

**Q.** Which CC50 [1] does the source give for `Cc1cnc(Nc2ccc(C#N)cc2)nc1NC1CC1` here?
**A.** The CC50 was 0.36 µM.

**Q.** And the EC50 [2]?
**A.** The EC50 was greater than 0.36 µM.

**Q.** What about the EC50 [4] of the same compound?
**A.** The EC50 was greater than 360 nM.

**Q.** And the selectivity ratio [5]?
**A.** Its selectivity ratio is less than 1.

**Q.** With `Cc1cc(NC2CCCCC2)nc(Nc2ccc(C#N)cc2)n1` as the compound, how does the CC50 [1] read?
**A.** The CC50 was 0.34 µM.

**Q.** What about the EC50 [2] of the same compound?
**A.** Its EC50 is greater than 0.34 µM.

**Q.** What about the EC50 [4] of the same compound?
**A.** Its EC50 is greater than 340 nM.

**Q.** What about the selectivity ratio [5] of the same compound?
**A.** The selectivity ratio was less than 1.

**Q.** What does the source list for `Cc1cc(NC2CCCC2)nc(Nc2ccc(C#N)cc2)n1`?
**A.** CC50 [1]: 0.31 µM; EC50 [2]: > 0.31 µM; EC50 [4]: > 310 nM; selectivity ratio [5]: < 1

**Q.** What does the source list for `Cc1cc(NC2CC2)nc(Nc2ccc(C#N)cc2)n1`?
**A.** CC50 [1]: 0.088 µM; EC50 [2]: > 0.088 µM; EC50 [4]: > 88 nM; selectivity ratio [5]: < 1

**Q.** For `N#Cc1ccc(Nc2nccc(SC3CCCCC3)n2)cc1`, which CC50 [1] is on record?
**A.** Its CC50 is greater than 403 µM.

**Q.** What about the EC50 [2] of the same compound?
**A.** Its EC50 is greater than 403 µM.

**Q.** And the EC50 [3]?
**A.** The EC50 was greater than 403 µM.

**Q.** And the EC50 [4]?
**A.** Its EC50 is 55 nM.

**Q.** What about the selectivity ratio [5] of the same compound?
**A.** Its selectivity ratio is greater than 7290.

**Q.** For `Cc1cnc(Nc2ccc(C#N)cc2)nc1SC1CCCCC1`, which CC50 [1] is on record?
**A.** The CC50 was 33.4 µM.

**Q.** And the EC50 [2]?
**A.** The EC50 was greater than 33.4 µM.

**Q.** What about the EC50 [3] of the same compound?
**A.** The EC50 was greater than 33.4 µM.

**Q.** What about the EC50 [4] of the same compound?
**A.** Its EC50 is 430 nM.

**Q.** What about the selectivity ratio [5] of the same compound?
**A.** The selectivity ratio was 79.

**Q.** Which CC50 [1] does the source give for `CC(C)Nc1cccnc1N1CCN(C(=O)c2cc3cc(NS(C)(=O)=O)ccc3[nH]2)CC1` [DELAVIRDINE] here?
**A.** Its CC50 is greater than 4.39 µM.

**Q.** And the EC50 [3]?
**A.** The EC50 was greater than 4.39 µM.

**Q.** What about the EC50 [4] of the same compound?
**A.** The EC50 was 16 nM.

**Q.** What about the selectivity ratio [5] of the same compound?
**A.** The selectivity ratio was greater than 274.

**Q.** Which results are given for `O=C1Nc2ccc(Cl)cc2[C@@](C#CC2CC2)(C(F)(F)F)O1` [EFAVIRENZ]?
**A.** CC50 [1]: > 6.34 µM; EC50 [3]: 0.51 µM; EC50 [4]: 5.4 nM; selectivity ratio [5]: > 1150

**Q.** Which CC50 [1] does the source give for `Cc1cc(C#N)cc(C)c1Oc1nc(Nc2ccc(C#N)cc2)nc(N)c1Br` [ETRAVIRINE] here?
**A.** The CC50 was 27.8 µM.

**Q.** What about the EC50 [2] of the same compound?
**A.** The EC50 was greater than 27.8 µM.

**Q.** And the EC50 [3]?
**A.** The EC50 was 0.034 µM.

**Q.** What about the EC50 [4] of the same compound?
**A.** Its EC50 is 2.2 nM.

**Q.** What about the selectivity ratio [5] of the same compound?
**A.** The selectivity ratio was 12900.

**Q.** Which results are given for `Cc1ccnc2c1NC(=O)c1cccnc1N2C1CC1` [NEVIRAPINE]?
**A.** CC50 [1]: > 15 µM; EC50 [2]: > 15 µM; EC50 [3]: 3.49 µM

**Q.** What does the source list for `Cc1cn([C@H]2C[C@H](N=[N+]=[N-])[C@@H](CO)O2)c(=O)[nH]c1=O` [ZIDOVUDINE]?
**A.** CC50 [1]: ≥ 46.4 µM; EC50 [2]: 0.0075 µM; EC50 [3]: 0.013 µM; EC50 [4]: 7.5 nM; selectivity ratio [5]: ≥ 6360
